# “Also recorded” adds a separate entry of the source.
# Experiments:
# [1] = PDSP receptor binding, β1B; details: PDSP primary screen at 10 µM
# mice [2] = details: cited from earlier work
# α2A = biological target: T1, α2A (Homo sapiens, UniProt P08913); assay: PDSP receptor binding, α2A; details: PDSP primary screen at 10 µM
# T1 construct: purchased NIMH PDSP (Psychoactive Drug Screening Program, Roth lab, Case Western Reserve)
# 5ht2b = biological target: T2, 5ht2b (Homo sapiens, UniProt P41595); assay: PDSP receptor binding, 5ht2b; details: PDSP primary screen at 10 µM
# T2 construct: purchased NIMH PDSP (Psychoactive Drug Screening Program, Roth lab, Case Western Reserve)
# [3] = test system: other receptors (PDSP panel); assay: Full PDSP panel receptor binding; details: NIMH PDSP, Case Western Reserve
# KOR = KOR (Homo sapiens, UniProt P41145); assay: PDSP receptor binding, KOR; details: Case Western Reserve University, read-out: KOR Ki (secondary binding)
# CB1 = biological target: T3, CB1 (Homo sapiens, UniProt P21554); assay: PDSP receptor binding, CB1; details: PDSP primary screen at 10 µM
# T3 construct: purchased NIMH PDSP (Psychoactive Drug Screening Program, Roth lab, Case Western Reserve)
# D4 = biological target: T4, D4 (Homo sapiens, UniProt P21917); assay: PDSP receptor binding, D4; details: PDSP primary screen at 10 µM
# T4 construct: purchased NIMH PDSP (Psychoactive Drug Screening Program, Roth lab, Case Western Reserve)
# CB2 = biological target: T5, CB2 (Homo sapiens, UniProt P34972); assay: PDSP receptor binding, CB2; details: PDSP primary screen at 10 µM
# T5 construct: purchased NIMH PDSP (Psychoactive Drug Screening Program, Roth lab, Case Western Reserve)
# SERT = biological target: T6, SERT (Homo sapiens, UniProt P31645); assay: PDSP receptor binding, SERT; details: PDSP primary screen at 10 µM
# T6 construct: purchased NIMH PDSP (Psychoactive Drug Screening Program, Roth lab, Case Western Reserve)
# 5ht1d = biological target: T7, 5ht1d (Homo sapiens, UniProt P28221); assay: PDSP receptor binding, 5ht1d; details: PDSP primary screen at 10 µM
# T7 construct: purchased NIMH PDSP (Psychoactive Drug Screening Program, Roth lab, Case Western Reserve)
# 5ht3 = biological target: T8, 5ht3 (Homo sapiens, UniProt P46098); assay: PDSP receptor binding, 5ht3; details: PDSP primary screen at 10 µM
# T8 construct: purchased NIMH PDSP (Psychoactive Drug Screening Program, Roth lab, Case Western Reserve)
# 5ht6 = biological target: T9, 5ht6 (Homo sapiens, UniProt P50406); assay: PDSP receptor binding, 5ht6; details: PDSP primary screen at 10 µM
# T9 construct: purchased NIMH PDSP (Psychoactive Drug Screening Program, Roth lab, Case Western Reserve)
# 5ht2c = biological target: T10, 5ht2c (Homo sapiens, UniProt P28335); assay: PDSP receptor binding, 5ht2c; details: PDSP primary screen at 10 µM
# T10 construct: purchased NIMH PDSP (Psychoactive Drug Screening Program, Roth lab, Case Western Reserve)
# M2 = biological target: T11, M2 (Homo sapiens, UniProt P08172); assay: PDSP receptor binding, M2; details: PDSP primary screen at 10 µM
# T11 construct: purchased NIMH PDSP (Psychoactive Drug Screening Program, Roth lab, Case Western Reserve)
# Imidaz oline = assay: PDSP receptor binding, Imidazoline; details: PDSP primary screen at 10 µM
# σ1 = biological target: T12, σ1 (Homo sapiens, UniProt Q99720); assay: PDSP receptor binding, σ1; details: PDSP primary screen at 10 µM
# T12 construct: purchased NIMH PDSP (Psychoactive Drug Screening Program, Roth lab, Case Western Reserve)
# α3β3γ2 GABAA/BzR = α3β3γ2 GABAA/BzR (Homo sapiens, UniProt P18507+P34903); assay: Competition binding to HEK cell membranes, α3β3γ2; set-up: expressed in transfected cells; details: Figure 5; read-out: Ki α3
# H4 = biological target: T13, H4 (Homo sapiens, UniProt Q9H3N8); assay: PDSP receptor binding, H4; details: PDSP primary screen at 10 µM
# T13 construct: purchased NIMH PDSP (Psychoactive Drug Screening Program, Roth lab, Case Western Reserve)
# mice [4] = test system: mice; set-up: method as in earlier work; details: cited from earlier work
# α1A = biological target: T14, α1A (Homo sapiens, UniProt P35348); assay: PDSP receptor binding, α1A; details: PDSP primary screen at 10 µM
# T14 construct: purchased NIMH PDSP (Psychoactive Drug Screening Program, Roth lab, Case Western Reserve)
# α2C = biological target: T15, α2C (Homo sapiens, UniProt P18825); assay: PDSP receptor binding, α2C; details: PDSP primary screen at 10 µM
# T15 construct: purchased NIMH PDSP (Psychoactive Drug Screening Program, Roth lab, Case Western Reserve)
# 5ht1b = biological target: T16, 5ht1b (Homo sapiens, UniProt P28222); assay: PDSP receptor binding, 5ht1b; details: PDSP primary screen at 10 µM
# T16 construct: purchased NIMH PDSP (Psychoactive Drug Screening Program, Roth lab, Case Western Reserve)
# Beta2 = biological target: T17, Beta2 (Homo sapiens, UniProt P07550); assay: PDSP receptor binding, Beta2; details: PDSP primary screen at 10 µM
# T17 construct: purchased NIMH PDSP (Psychoactive Drug Screening Program, Roth lab, Case Western Reserve)
# α2B = biological target: T18, α2B (Homo sapiens, UniProt P18089); assay: PDSP receptor binding, α2B; details: PDSP primary screen at 10 µM
# T18 construct: purchased NIMH PDSP (Psychoactive Drug Screening Program, Roth lab, Case Western Reserve)
# 5ht2a = biological target: T19, 5ht2a (Homo sapiens, UniProt P28223); assay: PDSP receptor binding, 5ht2a; details: PDSP primary screen at 10 µM
# T19 construct: purchased NIMH PDSP (Psychoactive Drug Screening Program, Roth lab, Case Western Reserve)
smiles,measurement,setting,value
"CCc1ccc2c(c1)C(=O)N(C)Cc1c(C(=O)OCCCOC(=O)c3ncn4c3CN(C)C(=O)c3cc(CC)ccc3-4)ncn1-2 [XLi-356 (10), 1,3-Bis(8-ethyl-5,6-dihydro-5-methyl-6-oxo-4H-imidazo[1,5a][1,4]benzodiazepine-3-carboxy) propyl diester]",β1B binding,[1],∗ (“∗” indicates “primary missed” (<50% inhibition at 10 µM))
same,freezing (contextual memory) after scopolamine,"mice [2]; 10 mg/kg, scopolamine 1 mg/kg",attenuated the impairment of memory
same,reversal of scopolamine induced memory deficits,mice [2]; mice,potently reverse scopolamine induced memory deficits
same,α2A binding,α2A,∗ (“∗” indicates “primary missed” (<50% inhibition at 10 µM))
same,5ht2b binding,5ht2b,∗ (“∗” indicates “primary missed” (<50% inhibition at 10 µM))
same,full panel receptor binding,[3],do not bind to other receptors at levels of concern
same,Ki,KOR,6.12 µM
same,CB1 binding,CB1,∗ (“∗” indicates “primary missed” (<50% inhibition at 10 µM))
same,D4 binding,D4,∗ (“∗” indicates “primary missed” (<50% inhibition at 10 µM))
same,CB2 binding,CB2,∗ (“∗” indicates “primary missed” (<50% inhibition at 10 µM))
same,SERT binding,SERT,∗ (“∗” indicates “primary missed” (<50% inhibition at 10 µM))
same,5ht1d binding,5ht1d,∗ (“∗” indicates “primary missed” (<50% inhibition at 10 µM))
same,5ht3 binding,5ht3,∗ (“∗” indicates “primary missed” (<50% inhibition at 10 µM))
same,5ht6 binding,5ht6,∗ (“∗” indicates “primary missed” (<50% inhibition at 10 µM))
same,5ht2c binding,5ht2c,∗ (“∗” indicates “primary missed” (<50% inhibition at 10 µM))
same,M2 binding,M2,∗ (“∗” indicates “primary missed” (<50% inhibition at 10 µM))
same,Imidaz oline binding,Imidaz oline,∗ (“∗” indicates “primary missed” (<50% inhibition at 10 µM))
same,σ1 binding,σ1,∗ (“∗” indicates “primary missed” (<50% inhibition at 10 µM))
same,Ki,α3β3γ2 GABAA/BzR,8.55 µM
same,H4 binding,H4,∗ (“∗” indicates “primary missed” (<50% inhibition at 10 µM))
same,audio cued fear conditioning,mice [4],no activity; also recorded: not able to reverse
same,α1A binding,α1A,∗ (“∗” indicates “primary missed” (<50% inhibition at 10 µM))
same,α2C binding,α2C,∗ (“∗” indicates “primary missed” (<50% inhibition at 10 µM))
same,5ht1b binding,5ht1b,∗ (“∗” indicates “primary missed” (<50% inhibition at 10 µM))
same,Beta2 binding,Beta2,∗ (“∗” indicates “primary missed” (<50% inhibition at 10 µM))
same,α2B binding,α2B,∗ (“∗” indicates “primary missed” (<50% inhibition at 10 µM))
same,5ht2a binding,5ht2a,∗ (“∗” indicates “primary missed” (<50% inhibition at 10 µM))

# Source: publication PMC4657098, “A Review of the Updated Pharmacophore for the Alpha 5 GABA(A) Benzodiazepine Receptor Model” (International Journal of Medicinal Chemistry, 2015)
